We go through 44 compounds from US7105531B2, “Tricyclic protein kinase inhibitors” (WYETH, priority 1999, dated 2006).

One may read the melting point as the temperature of the solid-liquid transition.

Where a name gives a salt, the structure may show the parent alone. A value given as a limit tells only on which side of the number the result lay.

In turn, `COc1cc(Nc2c(C#N)cnc3cc4cc(OC)c(OC)cc4cc23)c(C)cc1Cl` came in with a melting point of 171 to 173 °C. With `COc1cc2cc3ncc(C#N)c(Nc4ccc(Cl)cc4Cl)c3cc2cc1OCCN1CCOCC1`, the melting point was 115 to 119 °C (dec.).

For the compound `COc1cc2cc3ncc(C#N)c(Nc4cc(OC)c(OC)c(OC)c4)c3cc2cc1OCCN1CCN(C)CC1`, the melting point was 115 to 120 °C (dec.). As for `COc1cc2cc3ncc(C#N)c(Nc4cc(OC)c(OC)c(OC)c4)c3cc2cc1OCCN1CCOCC1`, the figure is 135 to 138 °C (dec.); as for `COc1cc(Nc2c(C#N)cnc3cc4cc(OC)c(OCCN5CCC(O)CC5)cc4cc23)c(Cl)cc1Cl`, 150 to 160 °C. As for `COc1cc(Nc2c(C#N)cnc3cc4cc(OCCN5CCC(O)CC5)c(OC)cc4cc23)c(Cl)cc1Cl`, the figure is 193 to 198 °C; as for `COc1cc(Nc2c(C#N)cnc3cc4cc(OCCN5CCC(O)CC5)c(OC)cc4cc23)c(Cl)cc1C`, 210 to 215 °C. As for `COc1cc(Nc2c(C#N)cnc3cc4cc(OCCN5CCOCC5)c(OC)cc4cc23)c(Cl)cc1F`, the figure is 206 to 222 °C. `COc1cc(Nc2c(C#N)cnc3cc4cc(OC)c(OCCN5CCOCC5)cc4cc23)c(Cl)cc1C` had a melting point of 240 to 241 °C.

Compound `COc1cc2cc3ncc(C#N)c(Nc4ccc(Oc5ccccc5)cc4)c3cc2cc1OC` (as salt: salt) [Example 11, 7,8-Dimethoxy-4-(4-phenoxyanilino)benzo[g]quinoline-3-carbonitrile] showed a melting point greater than 265 °C.

As to `COc1cc2cc3ncc(C#N)c(Nc4ccc(F)c(Cl)c4)c3cc2cc1OC` (as salt: salt) [Example 13, 4-(3-Chloro-4-fluoroanilino)-7,8-dimethoxybenzo[g]quinoline-3-carbonitrile], the melting point was greater than 280 °C. As for `N#Cc1cnc2cc3ccccc3cc2c1Nc1ccc(F)c(Cl)c1` [Example 4, 4-(3-Chloro-4-fluoroanilino)benzo[g]quinoline-3-carbonitrile], the figure is 257 to 259 °C.

Turning to `COc1cc(Nc2c(C#N)cnc3cc4ccccc4cc23)c(C)cc1Cl` [Example 5, 4-(4-Chloro-5-methoxy-2-methylanilino)benzo[g]quinoline-3-carbonitrile], the melting point fell in the range of 195 to 197 °C. As for `COc1cc2cc3ncc(C#N)c(Nc4ccc(Cl)cc4Cl)c3cc2cc1OC` [Example 14, 4-(2,4-Dichloroanilino)-7,8-dimethoxybenzo[g]quinoline-3-carbonitrile], the figure is 271 to 273 °C; as for `N#Cc1cnc2cc3cc(O)c(O)cc3cc2c1Nc1ccc(Cl)cc1Cl` [Example 15, 4-(2,4-Dichloroanilino)-7,8-dihydroxybenzo[g]quinoline-3-carbonitrile], greater than 260 °C; as for `COc1ccc(C)c(Nc2c(C#N)cnc3c2C=C2N=C(NCCN4CCOCC4)N=C2C3)c1` [Example 31, 8-(5-Methoxy-2-methylanilino)-2-{[2-(4-morpholinyl)ethyl]amino}imidazo [4,5-g]quinoline-7-carbonitrile], 148 to 150 °C. As for `COc1cc(Nc2c(C#N)cnc3c2C=C2N=C(NCCN4CCOCC4)N=C2C3)cc(OC)c1OC` [Example 33, 2-{[2-(4-Morpholinyl)ethyl]amino}-8-(3,4,5-trimethoxyanilino)imidazo[4,5-g]quinoline-7-carbonitrile], the figure is 175 to 178 °C. `N#Cc1cnc2c(c1Nc1ccc(Oc3ccccc3)cc1)C=C1N=C(N)N=C1C2` [Example 34, 2-Amino-8-(4-phenoxyanilino)imidazo[4,5-g]quinoline-7-carbonitrile] registered a melting point greater than 300 °C.

As to `N#Cc1cnc2c(c1Nc1cccc(Br)c1)C=C1N=CN=C1C2` [Example 37, 8-(3-Bromo-phenylamino)imidazo[4,5-g]quinoline-7-carbonitrile], the melting point was 286 to 288 °C. With `Cc1ccc(Nc2c(C#N)cnc3c2C=C2N=CN=C2C3)cc1O` [Example 41, 8-(3-Hydroxy-4-methylphenylamino)imidazo[4,5-g]quinoline-7-carbonitrile], the melting point is 257 to 260 °C (dec.). As for `COc1cc(Nc2c(C#N)cnc3c2C=C2N=C(CN4CCOCC4)N=C2C3)cc(OC)c1OC` [Example 48, 2-(4-Morpholinylmethyl)-8-(3,4,5-trimethoxyanilino)imidazo[4,5-g]quinoline-7-carbonitrile], the figure is 258 to 260 °C (dec.). Turning to `N#Cc1cnc2cc3c(cc2c1Nc1ccc(Oc2ccccc2)cc1)ncn3CCN1CCOCC1` [Example 58, 3-[2-(4-Morpholinyl)ethyl]-8-(4-phenoxyanilino)-3H-imidazo[4,5-g]quinoline-7-carbonitrile], the melting point is greater than 260 °C. In the case of `N#Cc1cnc2c(sc3ccccc32)c1Nc1cccc(Br)c1` [Example 65, 4-(3-Bromophenylamino)benzo[4,5]thieno[3,2-b]pyridine-3-carbonitrile], the melting point is 240 to 242 °C.

For `N#Cc1cnc2c(sc3ccccc32)c1Nc1ccc(Cl)cc1F` [Example 66, 4-(4-Chloro-2-fluorophenylamino)benzo[4,5]thieno[3,2-b]pyridine-3-carbonitrile], the melting point was 250 to 251 °C. As for `COc1cc(Nc2c(C#N)cnc3c2sc2ccccc23)c(Cl)cc1Cl` [Example 68, 4-(2,4-Dichloro-5-methoxyphenylamino)benzo[4,5]thieno[3,2-b]pyridine-3-carbonitrile], the figure is 234 to 236 °C.

Take `Cc1ccc(Nc2c(C#N)cnc3c2sc2ccccc23)cc1O` [Example 70, 4-(3-Hydroxy-4-methylphenylamino)benzo[4,5]thieno[3,2-b]pyridine-3-carbonitrile]: the melting point was 260 °C (dec.). As for `N#Cc1cnc2c(sc3ccccc32)c1Oc1ccc(Cl)cc1F` [Example 71, 4-(4-Chloro-2-fluorophenoxy)benzo[4,5]thieno[3,2-b]pyridine-3-carbonitrile], the figure is 174 to 175 °C; as for `COc1cc(Nc2c(C#N)cnc3c2sc2ccc(N)cc23)c(C)cc1Cl` [Example 76, 8-Amino-4-(4-chloro-5-methoxy-2-methylanilino)[1]benzothieno[3,2-b]pyridine-3-carbonitrile], 266 to 268 °C (dec.); as for `N#Cc1cnc2c(sc3c(N)cccc32)c1Nc1cccc(Br)c1` [Example 81, 6-Amino-4-(3-bromoanilino)[1]benzothieno[3,2-b]pyridine-3-carbonitrile], 256 to 258 °C. As for `N#Cc1cnc2c(oc3ccccc32)c1Nc1cccc(Br)c1` [Example 85, 4-(3-Bromophenylamino)benzo[4,5]furo[3,2-b]pyridine-3-carbonitrile], the figure is 242 to 245 °C. As for `N#Cc1cnc2c(oc3ccccc32)c1Nc1ccc(Cl)cc1F` [Example 86, 4-(4-Chloro-2-fluorophenylamino)benzo[4,5]furo[3,2-b]pyridine-3-carbonitrile], the figure is 259 to 261 °C; as for `Cc1ccc(Nc2c(C#N)cnc3c2oc2ccccc23)cc1O` [Example 87, 4-(3-Hydroxy-4-methylphenylamino)benzo[4,5]furo[3,2-b]pyridine-3-carbonitrile], 240 °C (dec.). As to `N#Cc1cnc2c(oc3ccccc32)c1Nc1ccc(Oc2ccccc2)cc1` [Example 88, 4-(4-Phenoxyphenylamino)benzo[4,5]furo[3,2-b]pyridine-3-carbonitrile], the melting point fell in the range of 175 to 179 °C.

Compound `N#Cc1cnc2c(oc3ccccc32)c1Oc1ccc(Cl)cc1F` [Example 89, 4-(4-Chloro-2-fluorophenoxy)-benzo[4,5]furo[3,2-b]pyridine-3-carbonitrile] displayed a melting point of 138 to 140 °C. Consider `N#Cc1cnc2c(sc3ccc([N+](=O)[O-])cc32)c1Nc1ccc(Cl)cc1Cl` [Example 90, 4-(2,4-Dichloroanilino)-8-nitro[1]benzothieno[3,2-b]pyridine-3-carbonitrile], for which the melting point lay within 210 to 213 °C. In the case of `N#Cc1cnc2c(sc3ccc([N+](=O)[O-])cc32)c1Nc1cccc(Br)c1` [Example 91, 4-(3-Bromoanilino)-8-nitro[1]benzothieno[3,2-b]pyridine-3-carbonitrile], the melting point is greater than 300 °C.

`N#Cc1cnc2c(sc3ccc(N)cc32)c1Nc1cccc(Br)c1` [Example 92, 8-Amino-4-(3-bromoanilino)-[1]benzothieno[3,2-b]pyridine-3-carbonitrile]: the melting point was 295 to 300 °C (dec.).

For `C=CC(=O)Nc1ccc2sc3c(Nc4cccc(Br)c4)c(C#N)cnc3c2c1` [Example 93, N-[4-(3-Bromoanilino)-3-cyano[1]benzothieno[3,2-b]pyridin-8-yl]acrylamide], the melting point was > 300 °C (dec.). As for `C=CC(=O)Nc1cccc2c1sc1c(Nc3cccc(Br)c3)c(C#N)cnc12` [Example 94, N-[4-(3-Bromoanilino)-3-cyano[1]benzothieno[3,2-b]pyridin-6-yl]acrylamide], the figure is 286 to 287 °C. For `COc1ccc2cc3ncc(C#N)c(Nc4ccc(Cl)cc4Cl)c3cc2c1` [Example 103, 4-(2,4-Dichloroanilino)-7-methoxybenzo[g]quinoline-3-carbonitrile], the melting point fell in the range of 215 to 217 °C. `COc1ccc2cc3c(Nc4ccc(Cl)cc4Cl)c(C#N)cnc3cc2c1` [Example 104, 4-(2,4-Dichloroanilino)-8-methoxybenzo[g]quinoline-3-carbonitrile] had a melting point greater than 260 °C. With `N#Cc1cnc2cc3ccc(O)cc3cc2c1Nc1ccc(Cl)cc1Cl` [Example 105, 4-(2,4-Dichloroanilino)-7-hydroxybenzo[g]quinoline-3-carbonitrile], the melting point is greater than 300 °C. As for `N#Cc1cnc2cc3cc(O)ccc3cc2c1Nc1ccc(Cl)cc1Cl` [Example 106, 4-(2,4-Dichloroanilino)-8-hydroxybenzo[g]quinoline-3-carbonitrile], the figure is 267 to 269 °C. Take `CN(C)CCOc1ccc2cc3ncc(C#N)c(Nc4ccc(Cl)cc4Cl)c3cc2c1` [Example 107, 4-(2,4-Dichloroanilino)-7-[2-(dimethylamino)ethoxy]benzo[g]quinoline-3-carbonitrile]: the melting point was in the range of 115 to 117 °C.
